Numbers after ± are expanded uncertainties.
Tests used:
[1] = refractive index (other wavelength) (dimensionless); conditions: 298.15 K, 101.3 kPa, Liquid
[2] = refractive index (other wavelength) (dimensionless); wn = mass fraction of the nth substance listed; conditions: 298.15 K, 101.3 kPa, Liquid

C1CCCCC1 [cyclohexane]
[1]
Conditions | refractive index
Wavelength=670 nm | 1.42253 ± 0.00063
Wavelength=925 nm | 1.41832 ± 0.00063

C1CCCCC1 [cyclohexane] + CO
refractive index, [2]
Conditions | w1 = 0.1 | w1 = 0.2004 | w1 = 0.2999
Wavelength=670 nm | 1.33196 ± 0.00063 | 1.34128 ± 0.00063 | 1.34987 ± 0.00063
Wavelength=925 nm | 1.32811 ± 0.00063 | 1.33737 ± 0.00063 | 1.34602 ± 0.00063

C1CCCCC1 [cyclohexane] + Cc1ccccc1
refractive index, [2]
Conditions | w1 = 0.0996 | w1 = 0.2002 | w1 = 0.2995 | w1 = 0.4003 | w1 = 0.5004 | w1 = 0.6002 | w1 = 0.7 | w1 = 0.8005 | w1 = 0.9001
Wavelength=670 nm | 1.48158 ± 0.00063 | 1.47363 ± 0.00063 | 1.46616 ± 0.00063 | 1.45883 ± 0.00063 | 1.45162 ± 0.00063 | 1.44527 ± 0.00063 | 1.43903 ± 0.00063 | 1.43327 ± 0.00063 | 1.42768 ± 0.00063
Wavelength=925 nm | 1.47383 ± 0.00063 | 1.46618 ± 0.00063 | 1.4592 ± 0.00063 | 1.45229 ± 0.00063 | 1.44539 ± 0.00063 | 1.43956 ± 0.00063 | 1.43363 ± 0.00063 | 1.42825 ± 0.00063 | 1.42296 ± 0.00063

CO [methanol]
[1]
Conditions | refractive index
Wavelength=670 nm | 1.32603 ± 0.00063
Wavelength=925 nm | 1.32235 ± 0.00063

Cc1ccccc1 [toluene]
[1]
Conditions | refractive index
Wavelength=670 nm | 1.48998 ± 0.00063
Wavelength=925 nm | 1.48176 ± 0.00063

Cc1ccccc1 [toluene] + CO
refractive index, [2]
Conditions | w1 = 0.1001 | w1 = 0.1994 | w1 = 0.3001 | w1 = 0.4 | w1 = 0.4996 | w1 = 0.6 | w1 = 0.6994 | w1 = 0.8001 | w1 = 0.8994
Wavelength=670 nm | 1.34089 ± 0.00063 | 1.35612 ± 0.00063 | 1.37219 ± 0.00063 | 1.38826 ± 0.00063 | 1.4056 ± 0.00063 | 1.42196 ± 0.00063 | 1.43865 ± 0.00063 | 1.45699 ± 0.00063 | 1.47418 ± 0.00063
Wavelength=925 nm | 1.33686 ± 0.00063 | 1.35152 ± 0.00063 | 1.36718 ± 0.00063 | 1.38279 ± 0.00063 | 1.39956 ± 0.00063 | 1.41564 ± 0.00063 | 1.43182 ± 0.00063 | 1.44951 ± 0.00063 | 1.46633 ± 0.00063
